According to patent US5534511A, “Aminoalkyl benzoxazolinones and benzothiazolinones” (Adir et Compagnie, priority 1994, dated 1996):

Test system: NMRI-CERJ mice
Assay: Antagonism of the hypermotility induced by amphetamine
Type: in vivo
Settings: d-amphetamine 4 mg kg^-1 IP, 30 minutes
Method: 4 mg kg^-1 of d-amphetamine are injected intraperitoneally (IP) into groups of 10 NMRI-CERJ mice immediately after IP injection of the compound to be tested, and the mice are placed in an actimeter for 30 minutes.
The number of interruptions of the photoelectric cells is counted, as is the stereotyped behavior.
The activity of the compounds tested is expressed as a percentage of the antagonism of the hyperactivity induced by amphetamine.

## Cn1c(=O)sc2cc(CCN3CCC(Cc4ccccc4)CC3)ccc21 [Example 1, 3-METHYL-6-[2-(4-BENZYLPIPERID-1-YL)ETHYL]BENZOTHIAZOLINONE]
2 mg.kg^-1 IP
  percentage of the antagonism of the hyperactivity induced by amphetamine: 23%
4 mg.kg^-1 IP
  percentage of the antagonism of the hyperactivity induced by amphetamine: 50%
8 mg.kg^-1 IP
  percentage of the antagonism of the hyperactivity induced by amphetamine: 63%
